Results reported in ChEMBL document CHEMBL1201862, “PubChem BioAssay data set” (2004).
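Compound exposure: 48 hours, 5 concentrations, 96-well plates. GI50: concentration for 50% inhibition of growth.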 Active and inactive are the calls of the source. No stated cut-off is given here; in the data, active = GI50 up to about 1.1 µM and inactive = higher.

What was measured:
Assay in all cases: growth of human tumour cells (NCI), 48 h
EKVX = system: EKVX
NCI-H460 = system: NCI-H460
CCRF-CEM = system: CCRF-CEM
HOP-92 = system: HOP-92
OVCAR-5 = system: OVCAR-5
SNB-19 = system: SNB-19
NCI-H522 = system: NCI-H522
HCT-116 = system: HCT-116
Malme-3M = system: Malme-3M
RXF 393 = system: RXF 393
UACC-257 = system: UACC-257
OVCAR-3 = system: OVCAR-3
M14 = system: M14
U-251 = system: U-251
ACHN = system: ACHN
UACC-62 = system: UACC-62
NCI-H23 = system: NCI-H23
SK-MEL-28 = system: SK-MEL-28
HT-29 = system: HT-29
KM12 = system: KM12

| Compound | GI50 (EKVX) | GI50 (NCI-H460) | GI50 (CCRF-CEM) | GI50 (HOP-92) | GI50 (OVCAR-5) | GI50 (SNB-19) | GI50 (NCI-H522) | GI50 (HCT-116) | GI50 (Malme-3M) | GI50 (RXF 393) | GI50 (UACC-257) | GI50 (OVCAR-3) | GI50 (M14) | GI50 (U-251) | GI50 (ACHN) | GI50 (UACC-62) | GI50 (NCI-H23) | GI50 (SK-MEL-28) | GI50 (HT-29) | GI50 (KM12) |
| --- | --- | --- | --- | --- | --- | --- | --- | --- | --- | --- | --- | --- | --- | --- | --- | --- | --- | --- | --- | --- |
| O=C(O)c1ccccc1/N=N/c1c(O)c(S(=O)(=O)O)cc2cc(S(=O)(=O)O)ccc12 | > 100 µM (inactive) | > 100 µM (inactive) | > 100 µM (inactive) | > 100 µM (inactive) | > 100 µM (inactive) | > 100 µM (inactive) | > 100 µM (inactive) | > 100 µM (inactive) | > 100 µM (inactive) | > 100 µM (inactive) | > 100 µM (inactive) | > 100 µM (inactive) | > 100 µM (inactive) | > 100 µM (inactive) | > 100 µM (inactive) | > 100 µM (inactive) | > 100 µM (inactive) | > 100 µM (inactive) | > 100 µM (inactive) | 84.3 µM (inactive) |
| O=C(CN1CCN(Cc2ccccc2)CC1)c1ccc2[nH]c(=O)oc2c1 | > 66.2 µM (inactive) | > 100 µM (inactive) | > 100 µM (inactive) | 53.1 µM (inactive) | > 100 µM (inactive) | > 100 µM (inactive) | 74.5 µM (inactive) | > 100 µM (inactive) | 0.845 µM (active) | > 100 µM (inactive) | > 100 µM (inactive) | > 100 µM (inactive) | > 100 µM (inactive) | > 88.7 µM (inactive) | > 100 µM (inactive) | > 100 µM (inactive) | > 100 µM (inactive) | > 100 µM (inactive) | > 100 µM (inactive) | > 100 µM (inactive) |
| C/C(=N\NC(=S)N1CCC(C2CCN(C(=S)N/N=C(\C)c3ccccn3)CC2)CC1)c1ccccn1 | > 100 µM (inactive) | > 100 µM (inactive) | > 100 µM (inactive) | 37.8 µM (inactive) | > 100 µM (inactive) | 74.1 µM (inactive) | 63.5 µM (inactive) | 29.2 µM (inactive) | > 100 µM (inactive) | 71.8 µM (inactive) | > 100 µM (inactive) | 60.3 µM (inactive) | > 100 µM (inactive) | 34.1 µM (inactive) | 53.7 µM (inactive) | > 100 µM (inactive) | 59.7 µM (inactive) | > 100 µM (inactive) | > 100 µM (inactive) | > 100 µM (inactive) |
| NC(=S)NNCC(=O)CC(O)(C(F)(F)F)C(F)(F)Cl (stereo not given) | > 100 µM (inactive) | 63.2 µM (inactive) | > 100 µM (inactive) | > 100 µM (inactive) | > 100 µM (inactive) | > 100 µM (inactive) | > 100 µM (inactive) | > 100 µM (inactive) | > 100 µM (inactive) | 38.5 µM (inactive) | > 100 µM (inactive) | > 100 µM (inactive) | > 100 µM (inactive) | > 100 µM (inactive) | 54.5 µM (inactive) | > 100 µM (inactive) | > 100 µM (inactive) | > 100 µM (inactive) | > 100 µM (inactive) | > 100 µM (inactive) |
| CC(C)[Si](OCC1CC(C#N)OC(C)(C)O1)(C(C)C)C(C)C (stereo not given) | 30.3 µM (inactive) | 16.5 µM (inactive) | 19.5 µM (inactive) | 21.7 µM (inactive) | 44 µM (inactive) | 22 µM (inactive) | 18.2 µM (inactive) | 16.5 µM (inactive) | 22.9 µM (inactive) | 17.1 µM (inactive) | 17.3 µM (inactive) | 15.6 µM (inactive) | 20 µM (inactive) | 15.8 µM (inactive) | 16 µM (inactive) | 30.1 µM (inactive) | 19.3 µM (inactive) | 39.4 µM (inactive) | 14.6 µM (inactive) | 17.5 µM (inactive) |
| O=C1/C(=C/c2ccc(O)cc2)CCC1CNc1ccc(Cl)cc1 (stereo not given) | 6.61 µM (inactive) | 4.15 µM (inactive) | 0.624 µM (active) | 14.7 µM (inactive) | 10.1 µM (inactive) | 15.2 µM (inactive) | 0.552 µM (active) | 1.38 µM (inactive) | 4.28 µM (inactive) | 6.31 µM (inactive) | 3.05 µM (inactive) | 2.28 µM (inactive) | 0.643 µM (active) | 5.7 µM (inactive) | 0.76 µM (active) | 0.367 µM (active) | 5.9 µM (inactive) | 9.95 µM (inactive) | 1.53 µM (inactive) | 0.895 µM (active) |
| CC(=O)Nc1[nH]c(C#N)nc1C#N | > 100 µM (inactive) | > 100 µM (inactive) | > 100 µM (inactive) | > 100 µM (inactive) | > 100 µM (inactive) | > 100 µM (inactive) | > 100 µM (inactive) | > 100 µM (inactive) | > 100 µM (inactive) | > 100 µM (inactive) | > 100 µM (inactive) | > 100 µM (inactive) | > 100 µM (inactive) | > 100 µM (inactive) | > 100 µM (inactive) | > 100 µM (inactive) | > 100 µM (inactive) | > 100 µM (inactive) | > 100 µM (inactive) | > 100 µM (inactive) |
| O=c1c2cc([N+](=O)[O-])ccc2[nH]n1Cc1ccccn1 | > 100 µM (inactive) | > 100 µM (inactive) | > 100 µM (inactive) | > 100 µM (inactive) | > 100 µM (inactive) | > 100 µM (inactive) | > 100 µM (inactive) | > 100 µM (inactive) | > 100 µM (inactive) | > 100 µM (inactive) | > 100 µM (inactive) | > 100 µM (inactive) | > 100 µM (inactive) | > 100 µM (inactive) | > 100 µM (inactive) | > 100 µM (inactive) | > 100 µM (inactive) | > 100 µM (inactive) | > 100 µM (inactive) | > 100 µM (inactive) |
| CCCCCc1cc2cc3c(c(O)c2c(=O)[nH]1)C1(CCC3)C(=O)c2c(O)c3c(c(O)c2C1=O)C(=O)C(OC)=CC3=O (stereo not given) | 0.361 µM (active) | 0.757 µM (active) | 0.586 µM (active) | 0.433 µM (active) | 2.02 µM (inactive) | 1.49 µM (inactive) | 0.59 µM (active) | 0.561 µM (active) | 0.468 µM (active) | 0.673 µM (active) | 0.783 µM (active) | 0.499 µM (active) | 0.908 µM (active) | 0.621 µM (active) | 0.552 µM (active) | 0.916 µM (active) | 0.828 µM (active) | 1.29 µM (inactive) | 0.748 µM (active) | 1.85 µM (inactive) |
| O=[N+]([O-])c1ccc(S(=O)(=O)N=Ic2ccccc2)cc1 | 97.7 µM (inactive) | > 100 µM (inactive) | > 100 µM (inactive) | > 100 µM (inactive) | > 100 µM (inactive) | > 100 µM (inactive) | > 100 µM (inactive) | > 100 µM (inactive) | > 100 µM (inactive) | > 100 µM (inactive) | > 100 µM (inactive) | > 100 µM (inactive) | > 100 µM (inactive) | > 100 µM (inactive) | > 100 µM (inactive) | > 100 µM (inactive) | > 100 µM (inactive) | > 100 µM (inactive) | > 100 µM (inactive) | > 100 µM (inactive) |
| O=C(c1ccco1)N(C(=S)OC12CC3CC(CC(C3)C1)C2)c1ccccc1 | 18.8 µM (inactive) | 30.8 µM (inactive) | 16.9 µM (inactive) | 19.5 µM (inactive) | 39.7 µM (inactive) | 34.7 µM (inactive) | 19.9 µM (inactive) | 19.9 µM (inactive) | 26.8 µM (inactive) | 13.7 µM (inactive) | 30.9 µM (inactive) | 28.1 µM (inactive) | 20.9 µM (inactive) | 23.3 µM (inactive) | 27.1 µM (inactive) | 23.4 µM (inactive) | 27.8 µM (inactive) | 37.9 µM (inactive) | 33.5 µM (inactive) | 31.2 µM (inactive) |
| NCC(O)CNC(=O)c1ccc(-c2ccc(-c3ccc(C(=O)NCC(O)CN)cc3)o2)cc1 (stereo not given) | 27.7 µM (inactive) | 59 µM (inactive) | > 100 µM (inactive) | 22.2 µM (inactive) | > 100 µM (inactive) | 22 µM (inactive) | 33.3 µM (inactive) | 22.4 µM (inactive) | 21.7 µM (inactive) | 18.9 µM (inactive) | > 100 µM (inactive) | 21.4 µM (inactive) | > 100 µM (inactive) | 21.5 µM (inactive) | 45.9 µM (inactive) | 41.8 µM (inactive) | 36.1 µM (inactive) | > 100 µM (inactive) | > 100 µM (inactive) | 51.2 µM (inactive) |
| OC(c1ccc(-c2ccccc2)cc1)C(F)(F)c1nc2ccccc2o1 (stereo not given) | > 73.3 µM (inactive) | 37.5 µM (inactive) | > 45 µM (inactive) | 29.9 µM (inactive) | > 100 µM (inactive) | 49 µM (inactive) | 25 µM (inactive) | 45.2 µM (inactive) | 91.8 µM (inactive) | 16.4 µM (inactive) | 40.3 µM (inactive) | 35.8 µM (inactive) | > 100 µM (inactive) | 30.7 µM (inactive) | 56.6 µM (inactive) | > 78 µM (inactive) | 39.9 µM (inactive) | > 100 µM (inactive) | > 68.1 µM (inactive) | 36.8 µM (inactive) |
| CCOP(=O)(OCC)C(C)(CC)NC (stereo not given) | > 100 µM (inactive) | > 100 µM (inactive) | 0.935 µM (active) | > 100 µM (inactive) | > 100 µM (inactive) | > 100 µM (inactive) | > 100 µM (inactive) | > 100 µM (inactive) | > 100 µM (inactive) | > 100 µM (inactive) | > 100 µM (inactive) | > 100 µM (inactive) | > 100 µM (inactive) | > 100 µM (inactive) | > 100 µM (inactive) | > 100 µM (inactive) | > 100 µM (inactive) | > 100 µM (inactive) | > 100 µM (inactive) | > 100 µM (inactive) |
